Values after ≈ are worked out from the molar mass of the structure shown. Where two headings read alike, the source gives them in different places. *1 amine or outer side, *2 acyl side, *3 side chain or, on linkers, in order; H or OH if unused. Where a SMILES comes first, the peptide text is derived from it. Bridges are numbered along the chain shown (N, C = ends). [ ]: non-standard residue; d: D form. The star is where a group is joined. ξ: configuration not given here. Piperazine(2S-CO,4-Me) = CN1CCN[C@H](C(=O)O)C1; Phe(3,5-F2) = N[C@@H](Cc1cc(F)cc(F)c1)C(=O)O; NH(1-Me-indolin-5-yl) = CN1CCc2cc(N*)ccc21; NH(4-OCF3-phenyl) = FC(F)(F)Oc1ccc(N*)cc1; Morpholine(3S-CO) = O=C(O)[C@@H]1COCCN1; Pro(4S-Me) = C[C@@H]1CN[C@H](C(=O)O)C1; NH(4-Cl-2-F-phenyl) = Fc1cc(Cl)ccc1N*; Pro(4R-Me) = C[C@H]1CN[C@H](C(=O)O)C1; NMeaThr = CN[C@H](C(=O)O)[C@H](C)O; Hyp = O=C(O)[C@@H]1C[C@@H](O)CN1; NH(4-Me-phenyl) = Cc1ccc(N*)cc1; ξNMeThr = CNC(C(=O)O)[C@@H](C)O; aThr = C[C@H](O)[C@H](N)C(=O)O; CO = O=C([*:1])[*:2]
What was measured:
Sa-ClpP = molecular target: T1, Sa-ClpP (Staphylococcus aureus, UniProt Q2G036); experiment: ADEP displacement fluorescence polarization assay (FP probe ADEP 2591); assay type: binding
T1 construct: made in house; host or cells: E. coli BL21(DE3)
T1 sequence (Q2G036 1-195): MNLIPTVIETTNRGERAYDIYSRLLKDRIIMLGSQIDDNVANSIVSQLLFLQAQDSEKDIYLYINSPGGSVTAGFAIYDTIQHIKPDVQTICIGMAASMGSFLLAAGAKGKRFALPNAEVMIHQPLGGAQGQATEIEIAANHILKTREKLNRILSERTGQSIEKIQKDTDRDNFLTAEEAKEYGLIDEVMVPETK
Method in brief: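 Master mix of 15 μM S. aureus ClpP with 50 nM TAMRA-labelled ADEP 2591 probe in Tris-HCl pH 8.0, 2% DMSO, was pre-equilibrated 1 h, then incubated with compound 120 min at room temperature. Polarization (ex 530, em 579 nm) was normalized to 200 μM ADEP 2378 and DMSO controls; four-parameter fits, triplicate.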

[1] = system: Enterococcus faecalis, ATCC 33186; experiment: Minimal inhibitory concentration assay (microbroth dilution); assay type: cell-based
Method in brief: (§1)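 CLSI broth microdilution: two-fold compound dilutions from 200 μM final, ~10^5 cfu/mL inoculum, aerobic overnight incubation at 37 °C. MIC read visually as lowest concentration preventing growth; S. aureus USA 300 compared with its ClpP-inactivated counterpart to check ClpP dependence.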

[2] = system: Streptococcus pneumoniae, R6; experiment: Minimal inhibitory concentration assay; assay type: cell-based; conditions: read-out: Minimal Inhibitory Concentrations S. pneumoniae R6
Method in brief: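 Microbroth dilution with two-fold serial compound dilutions in broth, incubated aerobically overnight at 37° C. MIC taken as the lowest concentration preventing bacterial growth.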

[3] = system: Staphylococcus aureus, USA 300 wherein ClpP is inactivated; experiment: Minimal inhibitory concentration assay; assay type: cell-based
Method in brief: as §1

[4] = system: Staphylococcus aureus, USA 300; experiment: Minimal inhibitory concentration assay; assay type: cell-based; conditions: USA300, read-out: Minimal Inhibitory Concentrations S. aureus USA 300
Method in brief: as §1

[5] = Enterococcus faecalis, ATCC33186, read-out: Minimal Inhibitory Concentrations E. faecalis ATCC 33186
[6] = Enterococcus faecalis, ATCC33186; read-out: Minimal Inhibitory Concentrations E. faecalis ATCC 33186

## Cc1ccc(NC(=O)N[C@@H](Cc2cc(F)cc(F)c2)C(=O)N[C@H]2COC(=O)[C@@H]3C[C@@H](C)CN3C(=O)[C@H](C)NC(=O)C([C@@H](C)O)N(C)C(=O)[C@@H]3CCCN3C2=O)cc1 (stereo partly drawn) [Compound 322, (S)-3-(3,5-difluorophenyl)-N-((2R,6S,9R,11aS,17S,20aS)-9-((R)-1-hydroxyethyl)-2,6,10-trimethyl-5,8,11,16,20-pentaoxohexadecahydro-1H,5H,16H-dipyrrolo[2,1-c:2′,1′-l][1]oxa[4,7,10,13]tetraazacyclohexadecin-17-yl)-2-(3-(p-tolyl)ureido)propanamide] ({NH(4-Me-phenyl)-CO}-[Phe(3,5-F2)]SP[ξNMeThr]A[Pro(4R-Me)]; ester 2-C)
Sa-ClpP
  IC50: 8.54 ± 0.4 µM
[1]; [5]
  MIC: > 20 µM
[2]
  MIC: 0.156 µM (≈ 0.124 µg/mL)
[3]
  Minimal Inhibitory Concentrations S. aureus USA 300 ΔClpP: 0.625 µM

## C[C@@H]1C[C@H]2C(=O)O[C@@H](C)[C@H](NC(=O)[C@H](Cc3cc(F)cc(F)c3)NC(=O)Nc3ccc(Cl)cc3F)C(=O)N3C[C@H](O)C[C@H]3C(=O)N3CCOC[C@H]3C(=O)N[C@@H](C)C(=O)N2C1 [Compound 316, (S)-2-(3-(4-chloro-2-fluorophenyl)ureido)-3-(3,5-difluorophenyl)-N-((6aS,8R,12S,13S,15aS,17R,21S,23aS)-8-hydroxy-13,17,21-trimethyl-6,11,15,20,23-pentaoxooctadecahydro-6H,11H,15H-[1,4]oxazino[3,4-i]dipyrrolo[2,1-c:2′,1′-l][1]oxa[4,7,10,13]tetraazacyclo-hexadecin-12-yl)propanamide] ({NH(4-Cl-2-F-phenyl)-CO}-[Phe(3,5-F2)][aThr][Hyp][Morpholine(3S-CO)]A[Pro(4R-Me)]; ester 2-C)
Sa-ClpP
  IC50: 6.9 ± 0.3 µM
[1]; [6]
  MIC: 0.078 µM (≈ 0.0674 µg/mL)
[2]
  MIC: < 0.02 µM
[4]
  MIC: 0.156 µM (≈ 0.135 µg/mL)
[3]
  Minimal Inhibitory Concentrations S. aureus USA 300 ΔClpP: >20 µM

## C[C@@H]1C[C@H]2C(=O)O[C@@H](C)[C@H](NC(=O)[C@H](Cc3cc(F)cc(F)c3)NC(=O)Nc3ccc4c(c3)CCN4C)C(=O)N3CCC[C@H]3C(=O)N3CCOC[C@H]3C(=O)N[C@@H](C)C(=O)N2C1 [Compound 312, (S)-3-(3,5-difluorophenyl)-2-(3-(1-methylindolin-5-yl)ureido)-N-((6aS,12S,13S,15aS,17R,21S,23aS)-13,17,21-trimethyl-6,11,15,20,23-pentaoxooctadecahydro-6H,11H,15H-[1,4]oxazino[3,4-i]dipyrrolo[2,1-c:2′,1′-l][1]oxa[4,7,10,13]tetraazacyclo-hexadecin-12-yl)propanamide] ({NH(1-Me-indolin-5-yl)-CO}-[Phe(3,5-F2)][aThr]P[Morpholine(3S-CO)]A[Pro(4R-Me)]; ester 2-C)
Sa-ClpP
  IC50: 6.3 ± 0.4 µM
[1]; [5]
  MIC: 0.039 µM (≈ 0.0332 µg/mL)
[2]
  MIC: 0.078 µM (≈ 0.0664 µg/mL)
[4]
  MIC: 0.156 µM (≈ 0.133 µg/mL)
[3]
  Minimal Inhibitory Concentrations S. aureus USA 300 ΔClpP: >20 µM

## C[C@@H]1C[C@H]2C(=O)O[C@@H](C)[C@H](NC(=O)[C@H](Cc3cc(F)cc(F)c3)NC(=O)Nc3ccc4c(c3)CCN4C)C(=O)N3C[C@H](O)C[C@H]3C(=O)N3CCOC[C@H]3C(=O)N[C@@H](C)C(=O)N2C1 [Compound 315, (S)-3-(3,5-difluorophenyl)-N-((6aS,8R,12S,13S,15aS,17R,21S,23aS)-8-hydroxy-13,17,21-trimethyl-6,11,15,20,23-pentaoxooctadecahydro-6H,11H,15H-[1,4]oxazino[3,4-i]dipyrrolo[2,1-c:2′,1′-l][1]oxa[4,7,10,13]tetraazacyclohexadecin-12-yl)-2-(3-(1-methylindolin-5-yl)ureido)propanamide] ({NH(1-Me-indolin-5-yl)-CO}-[Phe(3,5-F2)][aThr][Hyp][Morpholine(3S-CO)]A[Pro(4R-Me)]; ester 2-C)
Sa-ClpP
  IC50: 13.5 ± 0.6 µM
[1]; [5]
  MIC: 0.625 µM (≈ 0.542 µg/mL)
[2]
  MIC: 0.313 µM (≈ 0.271 µg/mL)
[4]
  MIC: 10 µM (≈ 8.67 µg/mL)
[3]
  Minimal Inhibitory Concentrations S. aureus USA 300 ΔClpP: >20 µM

## C[C@H]1C[C@H]2C(=O)O[C@@H](C)[C@H](NC(=O)[C@H](Cc3cc(F)cc(F)c3)NC(=O)Nc3ccc(OC(F)(F)F)cc3)C(=O)N3CCC[C@H]3C(=O)N(C)[C@@H]([C@H](C)O)C(=O)N[C@@H](C)C(=O)N2C1 [Compound 203, (S)-3-(3,5-difluorophenyl)-N-((2S,6S,9S,11aS,17S,18S,20aS)-9-((S)-1-hydroxyethyl)-2,6,10,18-tetramethyl-5,8,11,16,20-pentaoxohexadecahydro-1H,5H,16H-dipyrrolo[2,1-c:2′,1′-l][1]oxa[4,7,10,13]tetraazacyclohexadecin-17-yl)-2-(3-(4-(trifluoromethoxy)phenyl)ureido)propanamide] ({NH(4-OCF3-phenyl)-CO}-[Phe(3,5-F2)][aThr]P[NMeaThr]A[Pro(4S-Me)]; ester 2-C)
Sa-ClpP; displacement of FP probe ADEP 2591 from Sa-ClpP, read-out: ADEP Displacement IC50
  IC50: 6.4 ± 0.5 µM
[1]; [6]
  MIC: 0.781 µM (≈ 0.689 µg/mL)
[2]
  MIC: 0.024 µM (≈ 0.0212 µg/mL)
[4]
  MIC: 0.098 µM (≈ 0.0864 µg/mL)
[3]
  Minimal Inhibitory Concentrations S. aureus USA 300 ΔClpP: 50 µM

## C[C@@H]1C[C@H]2C(=O)OC[C@H](NC(=O)[C@H](Cc3cc(F)cc(F)c3)NC(=O)Nc3ccc(Cl)cc3F)C(=O)N3CCC[C@H]3C(=O)N3CCN(C)C[C@H]3C(=O)N[C@@H](C)C(=O)N2C1 [Compound 330, (S)-2-(3-(4-chloro-2-fluorophenyl)ureido)-3-(3,5-difluorophenyl)-N-((6aS,12S,15aS,17R,21S,23aS)-2,17,21-trimethyl-6,11,15,20,23-pentaoxooctadecahydro-2H,6H,11H,15H-pyrazino[2,1-i]dipyrrolo[2,1-c:2′,1′-l][1]oxa[4,7,10,13]tetraazacyclohexadecin-12-yl)propanamide] ({NH(4-Cl-2-F-phenyl)-CO}-[Phe(3,5-F2)]SP[Piperazine(2S-CO,4-Me)]A[Pro(4R-Me)]; ester 2-C)
Sa-ClpP
  IC50: 3.74 ± 0.2 µM
[1]; [6]
  MIC: < 0.02 µM
[2]
  MIC: 0.039 µM (≈ 0.033 µg/mL)
[4]
  MIC: 0.156 µM (≈ 0.132 µg/mL)
[3]
  Minimal Inhibitory Concentrations S. aureus USA 300 ΔClpP: >20 µM

## Cc1ccc(NC(=O)N[C@@H](Cc2ccccc2)C(=O)N[C@H]2COC(=O)[C@@H]3C[C@@H](C)CN3C(=O)[C@H](C)NC(=O)[C@@H]3CCCCN3C(=O)[C@@H]3CCCN3C2=O)cc1C [Compound 206, (S)—N-((2R,6S,8aS,14aS,20S,23aS)-2,6-dimethyl-5,8,14,19,23-pentaoxooctadecahydro-1H,5H,14H,19H-pyrido[2,1-i]dipyrrolo[2,1-c:2′,1′-l][1]oxa[4,7,10,13]tetraazacyclohexadecin-20-yl)-2-(3-(3,4-dimethylphenyl)ureido)-3-phenylpropanamide]
Sa-ClpP
  IC50: 7.1 ± 0.3 µM
[1]; [5]
  MIC: < 0.2 µM
[2]
  MIC: < 0.2 µM

## C[C@@H]1C[C@H]2C(=O)O[C@@H](C)[C@H](NC(=O)[C@H](Cc3cc(F)cc(F)c3)NC(=O)Nc3ccc4c(c3)CCN4C)C(=O)N3CCC[C@H]3C(=O)N(C)C([C@@H](C)O)C(=O)N[C@@H](C)C(=O)N2C1 (stereo partly drawn) [Compound 311, (S)-3-(3,5-difluorophenyl)-N-((2R,6S,9R,11aS,17S,18S,20aS)-9-((R)-1-hydroxyethyl)-2,6,10,18-tetramethyl-5,8,11,16,20-pentaoxohexadecahydro-1H,5H,16H-dipyrrolo[2,1-c:2′,1′-l][1]oxa[4,7,10,13]tetraazacyclohexadecin-17-yl)-2-(3-(1-methylindolin-5-yl)ureido)propanamide] ({NH(1-Me-indolin-5-yl)-CO}-[Phe(3,5-F2)][aThr]P[ξNMeThr]A[Pro(4R-Me)]; ester 2-C)
Sa-ClpP
  IC50: 7.5 ± 0.3 µM
[1]; [5]
  MIC: 0.039 µM (≈ 0.0333 µg/mL)
[2]
  MIC: 0.078 µM (≈ 0.0665 µg/mL)
[4]
  MIC: 0.156 µM (≈ 0.133 µg/mL)
[3]
  Minimal Inhibitory Concentrations S. aureus USA 300 ΔClpP: >20 µM

## C[C@@H]1C[C@H]2C(=O)OC[C@H](NC(=O)[C@H](Cc3ccccc3)NC(=O)Nc3ccc(OC(F)(F)F)cc3)C(=O)N3CCC[C@H]3C(=O)N3CCCC[C@H]3C(=O)N[C@@H](C)C(=O)N2C1 [Compound 205]
Sa-ClpP
  IC50: 21.6 ± 1.4 µM
[1]; E. faecalis ATCC 33186; read-out: Minimal Inhibitory Concentrations E. faecalis ATCC 33186
  MIC: 0.02 µM (≈ 0.0166 µg/mL)
[2]
  MIC: 0.2 µM (≈ 0.166 µg/mL)

## Cc1ccc(NC(=O)N[C@@H](Cc2cc(F)cc(F)c2)C(=O)N[C@H]2COC(=O)[C@@H]3C[C@@H](C)CN3C(=O)[C@H](C)NC(=O)[C@@H]3CCCCN3C(=O)[C@@H]3CCCN3C2=O)cc1C [Compound 207, (S)-3-(3,5-difluorophenyl)-N-((2R,6S,8aS,14aS,20S,23aS)-2,6-dimethyl-5,8,14,19,23-pentaoxooctadecahydro-1H,5H,14H,19H-pyrido[2,1-i]dipyrrolo[2,1-c:2′,1′-l][1]oxa[4,7,10,13]tetraazacyclohexadecin-20-yl)-2-(3-(3,4-dimethylphenyl)ureido)propanamide]
Sa-ClpP
  IC50: 5.2 ± 0.3 µM
[1]; [5]
  MIC: < 0.2 µM
[2]
  MIC: < 0.2 µM
